According to patent US8507509B2, “Saturated and insaturated bi- or tricyclic aryloxyacetamine derivatives and their use as fungicides” (Syngenta Crop Protection LLC, priority 2007, dated 2013):

Key:
[1] = system: Septoria tritici; assay: Septoria tritici (leaf blotch), liquid culture growth inhibition in nutrient broth; format: cell-based; conditions: Zymoseptoria tritici; 200 ppm; PDB broth, 24 C; inhibition of growth determined photometrically after 72 hrs; read-out: control of fungal infection, Septoria tritici
[2] = system: Phytophthora infestans; assay: whole plant or invertebrate; format: in vivo; conditions: in Solanum lycopersicum, foliar, 96 h, read-out: control of fungal infection, Phytophthora infestans
[3] = system: Erysiphe graminis f.sp. tritici; assay: Erysiphe graminis f.sp. tritici (wheat powdery mildew), wheat leaf segment assay, preventive; format: in vivo; conditions: Blumeria graminis, foliar, 96 h; 200 ppm; wheat leaf segments; assessed four days after inoculation; read-out: control of fungal infection, Etysiphe graminis f.sp. tritici
[4] = system: Pythium ultimum; assay: Pythium ultimum (Damping off), liquid culture growth inhibition in potato dextrose broth; format: cell-based; conditions: Globisporangium ultimum; 20 ppm; potato dextrose broth, 24° C.; inhibition of growth determined photometrically after 48 hours; read-out: control of fungal infection, Pythium ultimum
[5] = system: Plasmopara viticola; assay: Plasmopara viticola (downy mildew of grapevine), grapevine leaf disk assay, preventive; format: in vivo; conditions: foliar, 168 h, 200 ppm, grapevine leaf disks, assessed seven days after inoculation, read-out: control of fungal infection, Plasmopara viticola

CSC(Oc1ccc2ncc(Br)cc2c1)C(=O)NC(C)(C)C=NOCC#N (centres unmarked) [Compound No. 140, 2-(3-Bromo-quinolin-6-yloxy)-N-(2-cyanomethoxyimino-1,1-dimethyl-ethyl)-2-methylsulfanyl-acetamide]
≥ 60%: inhibition of growth at 200 ppm [1] | pest or weed control at 200 ppm [2] | pest or weed control at 200 ppm [3] | inhibition of growth at 20 ppm [4] | pest or weed control at 200 ppm [5]

CCON=CC(C)(C)NC(=O)C(Oc1ccc2ncc(I)cc2c1)SC (centres unmarked) [Compound No. 51, N-(2-Ethoxyimino-1,1-dimethyl-ethyl)-2-(3-iodo-quinolin-6-yloxy)-2-methylsulfanyl-acetamide]
≥ 60%: inhibition of growth at 200 ppm [1] | pest or weed control at 200 ppm [3] | inhibition of growth at 20 ppm [4] | pest or weed control at 200 ppm [5]

C=CCON=CC(C)(C)NC(=O)C(CC)Oc1ccc2ncc(I)cc2c1 (centres unmarked) [Compound No. 4, N-(2-Allyloxyimino-1,1-dimethyl-ethyl)-2-(3-iodo-quinolin-6-yloxy)-butyramide]
≥ 60%: inhibition of growth at 200 ppm [1] | pest or weed control at 200 ppm [2] | pest or weed control at 200 ppm [3] | inhibition of growth at 20 ppm [4] | pest or weed control at 200 ppm [5]

CSC(Oc1ccc2ncc(Br)cc2c1)C(=O)NC(C)(C)C=NOCC1CCCO1 (centres unmarked) [Compound No. 143, 2-(3-Bromo-quinolin-6-yloxy)-N-[1,1-dimethyl-2-(tetrahydro-furan-2-ylmethoxyimino)-ethyl]-2-methylsulfanyl-acetamide]
≥ 60%: inhibition of growth at 200 ppm [1] | pest or weed control at 200 ppm [2] | pest or weed control at 200 ppm [3] | inhibition of growth at 20 ppm [4] | pest or weed control at 200 ppm [5]

CSC(Oc1ccc2ncc(Br)cc2c1)C(=O)NC(C)(C)C=NO (centres unmarked) [Compound No. 19, 2-(3-Bromo-quinolin-6-yloxy)-N-(2-hydroxyimino-1,1-dimethyl-ethyl)-2-methylsulfanyl-acetamide]
≥ 60%: inhibition of growth at 200 ppm [1] | pest or weed control at 200 ppm [2] | pest or weed control at 200 ppm [3] | inhibition of growth at 20 ppm [4] | pest or weed control at 200 ppm [5]

CSC(Oc1cc(C)c2ncc(I)cc2c1)C(=O)NC(C)(C)CC=NO (centres unmarked) [Compound No. 41, N-(3-Hydroxyimino-1,1-dimethyl-propyl)-2-(3-iodo-8-methyl-quinolin-6-yloxy)-2-methylsulfanylacetamide]
≥ 60%: inhibition of growth at 200 ppm [1] | pest or weed control at 200 ppm [2] | pest or weed control at 200 ppm [3] | inhibition of growth at 20 ppm [4] | pest or weed control at 200 ppm [5]

CCC(Oc1ccc2ncc(I)cc2c1)C(=O)NC(C)(C)C=NO (centres unmarked) [Compound No. 152, N-(2-Hydroxyimino-1,1-dimethyl-ethyl)-2-(3-iodo-quinolin-6-yloxy)-butyramide]
≥ 60%: inhibition of growth at 200 ppm [1] | pest or weed control at 200 ppm [2] | pest or weed control at 200 ppm [3] | inhibition of growth at 20 ppm [4] | pest or weed control at 200 ppm [5]

CON=CC(C)(C)NC(=O)C(Oc1cc(C)c2ncc(I)cc2c1)SC (centres unmarked) [Compound No. 44, 2-(3-Iodo-8-methyl-quinolin-6-yloxy)-N-(2-methoxyimino-1,1-dimethyl-ethyl)-2-methylsulfanyl-acetamide]
≥ 60%: inhibition of growth at 200 ppm [1] | pest or weed control at 200 ppm [3] | inhibition of growth at 20 ppm [4] | pest or weed control at 200 ppm [5]

CON=CC(C)(C)NC(=O)C(OC)Oc1ccc2ncc(Br)cc2c1 (centres unmarked) [Compound No. 70, 2-(3-Bromo-quinolin-6-yloxy)-2-methoxy-N-(2-methoxyimino-1,1-dimethyl-ethyl)-acetamide]
≥ 60%: inhibition of growth at 200 ppm [1] | pest or weed control at 200 ppm [2] | pest or weed control at 200 ppm [3] | inhibition of growth at 20 ppm [4] | pest or weed control at 200 ppm [5]

CSC(Oc1ccc2ncc(Br)cc2c1)C(=O)NC(C)(C)C=NOc1ccccc1 (centres unmarked) [Compound No. 8, 2-(3-Bromo-quinolin-6-yloxy)-N-(1,1-dimethyl-2-phenoxyimino-ethyl)-2-methylsulfanyl-acetamide]
≥ 60%: inhibition of growth at 200 ppm [1] | pest or weed control at 200 ppm [2] | inhibition of growth at 20 ppm [4] | pest or weed control at 200 ppm [5]
